One compound from US5466716A, “Liposomal trimethylsphingosine” (The Biomembrane Institute, priority 1994, dated 1995) can be followed below.

Entries after “also recorded” stand apart in the source; their conditions may differ.

Assay [1] concerns human colonic cancer cell line COLO-205. In words: tritiated thymidine incorporation, tumor cell growth (COLO-205). It counts as cell-based. As to conditions: COLO-205, FIG. 2A. The text has this:
FIGS. 2A-2C show the effect of sphingosine derivatives on human tumor cell growth. In FIG. 2A the growth of human colonic cancer cell line COLO-205 was monitored. In FIG. 2B the growth of human lung cancer cell line LU-65 was monitored. In FIG. 2C the growth of human gastric cancer cell line MKN-74 was monitored. In each Figure the ordinate represents the percent inhibition of tritiated thymidine incorporation, the solid circles represent sphingosine, the open circles represent N,N-dimethylsphingosine and the triangles represent N,N,N-trimethylsphingosine.
An in vitro assay relying on tritiated thymidine incorporation can be used to ascertain the effect of various compounds on cell proliferation. Briefly, tumor cells are seeded in flat bottom 96 well plates (Corning, N.Y.) at a concentration of 2×10^4 cells per well. The cells are cultured for 2 days in DMEM containing various concentrations of sphingoid, which is added as a PBS solution. The medium then is supplemented with tritiated thymidine at a concentration of 0.5 μCi per well. Following a six hour incubation the cells are collected using the PHD Cell Harvester (Cambridge Technology, Cambridge, Mass.) and amounts of incorporated radioactivity are determined after adding a suitable cell lysing agent and scintillation cocktail, such as ScintiVerse BD (Fisher Scientific, Fairlawn, Calif.) which performs both functions. […]

In another assay the test system is BL6 melanoma cells. In words: melanoma BL6 cell proliferation (thymidine incorporation). It counts as cell-based. As to conditions: BL6, FIG. 5A. The text has this: FIGS. 5A and 5B depict the effect of N,N,N-trimethylsphingosine (open circles), N,N-dimethylsphingosine (solid circles) and sphingosine (open squares) on two melanoma cell lines, BL6, a highly malignant cell line (in FIG. 5A) and F1, a cell line of low malignancy, (in FIG. 5B). Cell proliferation was evidenced by tritiated thymidine incorporation into DNA.
An in vitro assay relying on tritiated thymidine incorporation can be used to ascertain the effect of various compounds on cell proliferation. Briefly, tumor cells are seeded in flat bottom 96 well plates (Corning, N.Y.) at a concentration of 2×10^4 cells per well. The cells are cultured for 2 days in DMEM containing various concentrations of sphingoid, which is added as a PBS solution. The medium then is supplemented with tritiated thymidine at a concentration of 0.5 μCi per well. Following a six hour incubation the cells are collected using the PHD Cell Harvester (Cambridge Technology, Cambridge, Mass.) and amounts of incorporated radioactivity are determined after adding a suitable cell lysing agent and scintillation cocktail, such as ScintiVerse BD (Fisher Scientific, Fairlawn, Calif.) which performs both functions.
Certain cancer cells show a higher metastatic potential and invasive capability than others. For example the BL6 and F10 melanoma cell lines are highly metastatic and invasive. […]
(In general: Uptake of a labelled nucleoside into DNA is a usual measure of proliferation.)

The subject of another assay is BL6 cells. In words: BL6 lung metastatic deposits in mice. It counts as in vivo. The text has this:
FIGS. 6A-C depict the effect of N,N,N-trimethylsphingosine on lung metastatic deposits after intravenous injection of BL6 cells into mice. Each graph represents the mean and standard deviation of results obtained in 8 animals. In FIG. 6A the open bars depict the total number of lung colony deposits; the stippled bars depict the number of lung colonies with a diameter of greater than 1 mm; and the solid bars depict the number of lung colonies with a diameter of less than 1 mm. Bars 1-3 depict the number of deposits observed 14 days after injection. Bars 4-6 depict the number of lung colony deposits in animals that received BL6 cells and 1 minute later received 0.2 mg of N,N,N-trimethylsphingosine (TMS). […]
In FIG. 6B the number of lung colonies was determined 16 days after treatment, the treatment consisting of varying doses and routes of administration. […]
In FIG. 6C the dose responsiveness of BL6 metastatic potential to TMS is presented. […] Sixteen days after treatment, the mice were sacrificed, lungs opened and the number of colonies in the lungs were counted under a dissecting microscope.
The effectiveness of TMS in vivo is summarized in the graphs comprising FIG. 6. BL6 cells were injected into mice and metastatic deposits in the lung were assessed after various treatments including route and timing of administration.

In another assay the test system is 40 kD platelet protein. In words: thrombin-induced phosphorylation of 40 kD platelet protein. The class given is cell-based, human. The settings on record: thrombin stimulation, FIG. 9. As for the experimental part:
FIG. 9 depicts the inhibition of γ-thrombin-induced phosphorylation of 40 kD protein of human platelets by sphingosine and TMS. Human platelets (3×10^5 /μl) were prelabeled with ^32 p-phosphoric acid (0.2 mCi/ml) in Tyrode's buffer containing 22 mM trisodium citrate, 1 mg/ml glucose and 3.5 mg/ml bovine serum albumin (pH 6.5) for 75 minutes at 37° C. After centrifugation (600× g, 10 minutes), the platelets were resuspended in Tyrode's buffer (pH 7.2), aliquoted in plastic tubes and pre-incubated at 37° C. for 5 minutes with various concentrations of sphingosine and its derivatives (added as 50% ethanol solutions with a final ethanol concentration of 0.5%). Platelets then were stimulated with thrombin […]. The reactions were stopped after 30 seconds by the addition of 5× sample buffer, the samples were boiled and loaded onto 10% SDS-polyacrylamide gels. The proteins were separated electrophotectically. Lane 1-control without stimulation by thrombin; Lane 2-stimulation by 1 μU/ml of γ-thrombin; Lane 3-stimulated by thrombin but added with 1 μM TMS; Lane 4-stimulated by thrombin but added with 10 μM TMS; Lane 5-stimulated by thrombin but added with 20 μM TMS; Lane 6-stimulated by thrombin but added with 30 μM TMS; Lane 7-stimulated by thrombin but added with 20 μM sphingosine; Lane 8-stimulated by thrombin but included addition of 20 μM N,N-dimethylsphingosine.

The test system of the next assay is erythrocytes. The assay can be described thus: erythrocyte metabolic activity under blood storage conditions. It counts as cell-based. As to conditions: in vitro, normal blood storage conditions. The text has this: Similar results can be expected for leukocytes and platelets.

Take `CCCCCCCCCCCCC/C=C/[C@@H](O)[C@H](CO)[N+](C)(C)C` [TMS, N,N,N-trimethylsphingosine]: in assay [1], the “inhibition of tumor cell growth” value is “superior to sphingosine; also recorded: showed an advantage over DMS”. For the same compound, the “inhibition of cell growth” value with BL6 melanoma cells was “more effective than DMS and sphingosine; also recorded: BL6 cells were more sensitive to TMS treatment”. Also, in the assay with BL6 cells (FIG. 6B, 6C), the “dose responsiveness of lung tumor colonization” value is listed as “distinct dose responsiveness”. Also, the “suppression of lung colonization and tumor development” value with BL6 cells (irrespective of route or timing, FIG. 6) is “effective in suppressing lung colonization and tumor development”. The “inhibition of phosphorylation of the 40 kD platelet protein” value in the assay on 40 kD platelet protein is on record as “inhibits phosphorylation of the 40 kD platelet protein”. Moreover, the erythrocyte metabolic activity entry in the assay on erythrocytes was “retards erythrocyte metabolic activity”.
